Measurements from ChEMBL document CHEMBL4507305, “Data for DCP probe TP-024” (2021).

Columns and labels:
[1] = test system: Tyrosine-protein kinase ABL1 (Homo sapiens), P00519 [E255K]; settings: Compound concentration 1000.0 nM
[2] = test system: Tyrosine-protein kinase ABL1 (Homo sapiens), P00519 [Q252H]; settings: Compound concentration 1000.0 nM
[3] = test system: Tyrosine-protein kinase ABL1 (Homo sapiens), P00519 [Q252H]; settings: Compound concentration 1000.0 nM; remark: listed apart in the source
[4] = molecular target: Activin receptor type-1B (Homo sapiens) (UniProt P36896); settings: Compound concentration 1000.0 nM
[5] = molecular target: Bone morphogenetic protein receptor type-2 (Homo sapiens) (UniProt Q13873); settings: Compound concentration 1000.0 nM
[6] = molecular target: Protein-tyrosine kinase 6 (Homo sapiens) (UniProt Q13882); settings: Compound concentration 1000.0 nM
[7] = molecular target: Cyclin-dependent kinase 4 (Homo sapiens) (UniProt P11802); settings: Compound concentration 1000.0 nM
[8] = molecular target: Cyclin-dependent kinase 5 (Homo sapiens) (UniProt Q00535); settings: Compound concentration 1000.0 nM
[9] = molecular target: Casein kinase I isoform gamma-2 (Homo sapiens) (UniProt P78368); settings: Compound concentration 1000.0 nM
[10] = molecular target: Casein kinase II subunit alpha' (Homo sapiens) (UniProt P19784); settings: Compound concentration 1000.0 nM
[11] = molecular target: Death-associated protein kinase 2 (Homo sapiens) (UniProt Q9UIK4); settings: Compound concentration 1000.0 nM
[12] = molecular target: Dual specificity tyrosine-phosphorylation-regulated kinase 2 (Homo sapiens) (UniProt Q92630); settings: Compound concentration 1000.0 nM
[13] = test system: Epidermal growth factor receptor (Homo sapiens), P00533 [G719C]; settings: Compound concentration 1000.0 nM
[14] = molecular target: Ephrin type-A receptor 2 (Homo sapiens) (UniProt P29317); settings: Compound concentration 1000.0 nM
[15] = molecular target: Vascular endothelial growth factor receptor 1 (Homo sapiens) (UniProt P17948); settings: Compound concentration 1000.0 nM
[16] = test system: Receptor-type tyrosine-protein kinase FLT3 (Homo sapiens), P36888 [UNDEFINED MUTATION]; settings: Compound concentration 1000.0 nM
[17] = molecular target: Glycogen synthase kinase-3 alpha (Homo sapiens) (UniProt P49840); settings: Compound concentration 1000.0 nM
Sequence of Glycogen synthase kinase-3 alpha (Homo sapiens) (P49840 2-483 limits assumed): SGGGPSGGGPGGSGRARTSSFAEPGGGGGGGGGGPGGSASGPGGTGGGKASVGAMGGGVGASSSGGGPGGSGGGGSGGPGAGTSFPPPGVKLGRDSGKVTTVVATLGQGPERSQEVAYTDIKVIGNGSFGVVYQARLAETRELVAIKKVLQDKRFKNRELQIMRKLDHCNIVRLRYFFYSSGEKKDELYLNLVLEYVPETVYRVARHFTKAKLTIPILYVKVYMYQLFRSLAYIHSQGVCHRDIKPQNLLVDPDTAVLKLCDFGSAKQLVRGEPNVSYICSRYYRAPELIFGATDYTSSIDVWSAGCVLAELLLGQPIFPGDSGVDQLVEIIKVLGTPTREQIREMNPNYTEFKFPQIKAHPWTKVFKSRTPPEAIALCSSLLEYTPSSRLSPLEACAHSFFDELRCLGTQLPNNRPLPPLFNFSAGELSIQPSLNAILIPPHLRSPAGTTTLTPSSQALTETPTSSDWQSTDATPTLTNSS

[18] = molecular target: Homeodomain-interacting protein kinase 1 (Homo sapiens) (UniProt Q86Z02); settings: Compound concentration 1000.0 nM
Sequence of Homeodomain-interacting protein kinase 1 (Homo sapiens) (Q86Z02 whole entry, looked up): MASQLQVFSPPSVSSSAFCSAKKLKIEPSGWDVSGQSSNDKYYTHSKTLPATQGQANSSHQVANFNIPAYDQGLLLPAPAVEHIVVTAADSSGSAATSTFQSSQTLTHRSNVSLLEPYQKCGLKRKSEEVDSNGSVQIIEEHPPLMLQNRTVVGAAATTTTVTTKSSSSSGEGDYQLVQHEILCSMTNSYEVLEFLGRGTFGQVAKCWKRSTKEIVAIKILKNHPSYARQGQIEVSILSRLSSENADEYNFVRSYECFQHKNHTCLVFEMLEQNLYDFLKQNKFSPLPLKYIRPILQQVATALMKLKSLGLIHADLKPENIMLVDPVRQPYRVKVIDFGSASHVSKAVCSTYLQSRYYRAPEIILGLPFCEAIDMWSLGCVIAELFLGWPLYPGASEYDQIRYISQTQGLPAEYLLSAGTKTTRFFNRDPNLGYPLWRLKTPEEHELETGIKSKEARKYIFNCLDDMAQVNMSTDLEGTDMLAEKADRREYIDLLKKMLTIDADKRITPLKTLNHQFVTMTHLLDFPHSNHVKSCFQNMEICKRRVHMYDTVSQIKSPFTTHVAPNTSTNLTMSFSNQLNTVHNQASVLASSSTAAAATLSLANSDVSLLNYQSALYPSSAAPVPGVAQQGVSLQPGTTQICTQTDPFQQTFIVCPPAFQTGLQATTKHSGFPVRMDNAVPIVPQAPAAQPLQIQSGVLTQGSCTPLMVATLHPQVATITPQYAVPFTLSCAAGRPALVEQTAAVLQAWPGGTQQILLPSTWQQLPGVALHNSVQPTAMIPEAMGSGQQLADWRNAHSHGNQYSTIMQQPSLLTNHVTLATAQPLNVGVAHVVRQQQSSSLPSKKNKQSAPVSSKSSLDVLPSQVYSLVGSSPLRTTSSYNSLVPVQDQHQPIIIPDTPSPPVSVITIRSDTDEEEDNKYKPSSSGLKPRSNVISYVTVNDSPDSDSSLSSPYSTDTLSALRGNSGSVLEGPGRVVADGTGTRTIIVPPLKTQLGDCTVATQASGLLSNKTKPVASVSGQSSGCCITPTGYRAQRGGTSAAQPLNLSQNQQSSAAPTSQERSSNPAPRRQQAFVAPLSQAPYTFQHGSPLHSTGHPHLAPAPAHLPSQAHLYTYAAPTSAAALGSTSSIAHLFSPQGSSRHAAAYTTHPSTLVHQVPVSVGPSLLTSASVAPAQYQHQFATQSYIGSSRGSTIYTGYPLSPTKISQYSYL

[19] = molecular target: Inhibitor of nuclear factor kappa-B kinase subunit beta (Homo sapiens) (UniProt O14920); settings: Compound concentration 1000.0 nM
[20] = molecular target: Tyrosine-protein kinase JAK1 (Homo sapiens) (UniProt P23458); settings: Compound concentration 1000.0 nM
[21] = molecular target: Mast/stem cell growth factor receptor Kit (Homo sapiens) (UniProt P10721); settings: Compound concentration 1000.0 nM
[22] = molecular target: Serine/threonine-protein kinase STK11 (Homo sapiens) (UniProt Q15831); settings: Compound concentration 1000.0 nM
[23] = molecular target: Dual specificity mitogen-activated protein kinase kinase 2 (Homo sapiens) (UniProt P36507); settings: Compound concentration 1000.0 nM
[24] = molecular target: Misshapen-like kinase 1 (Homo sapiens) (UniProt Q8N4C8); settings: Compound concentration 1000.0 nM
[25] = molecular target: Myosin light chain kinase (Homo sapiens) (UniProt Q32MK0); settings: Compound concentration 1000.0 nM
[26] = molecular target: Serine/threonine-protein kinase MRCK alpha (Homo sapiens) (UniProt Q5VT25); settings: Compound concentration 1000.0 nM
[27] = molecular target: Serine/threonine-protein kinase 24 (Homo sapiens) (UniProt Q9Y6E0); settings: Compound concentration 1000.0 nM
Sequence of Serine/threonine-protein kinase 24 (Homo sapiens) (Q9Y6E0 whole entry, looked up): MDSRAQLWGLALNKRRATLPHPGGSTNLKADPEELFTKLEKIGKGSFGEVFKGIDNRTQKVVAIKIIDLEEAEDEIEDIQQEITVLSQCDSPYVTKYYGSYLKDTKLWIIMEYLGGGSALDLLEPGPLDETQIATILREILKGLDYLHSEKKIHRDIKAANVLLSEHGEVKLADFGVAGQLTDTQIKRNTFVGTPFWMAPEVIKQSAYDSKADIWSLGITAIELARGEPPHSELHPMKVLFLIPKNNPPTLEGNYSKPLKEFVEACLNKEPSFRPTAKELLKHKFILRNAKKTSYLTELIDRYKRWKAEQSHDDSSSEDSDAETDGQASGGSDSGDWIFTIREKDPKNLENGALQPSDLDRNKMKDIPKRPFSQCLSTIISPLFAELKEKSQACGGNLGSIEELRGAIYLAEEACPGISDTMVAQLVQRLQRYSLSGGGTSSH

[28] = molecular target: Serine/threonine-protein kinase 38-like (Homo sapiens) (UniProt Q9Y2H1); settings: Compound concentration 1000.0 nM
Sequence of Serine/threonine-protein kinase 38-like (Homo sapiens) (Q9Y2H1 2-464 limits assumed): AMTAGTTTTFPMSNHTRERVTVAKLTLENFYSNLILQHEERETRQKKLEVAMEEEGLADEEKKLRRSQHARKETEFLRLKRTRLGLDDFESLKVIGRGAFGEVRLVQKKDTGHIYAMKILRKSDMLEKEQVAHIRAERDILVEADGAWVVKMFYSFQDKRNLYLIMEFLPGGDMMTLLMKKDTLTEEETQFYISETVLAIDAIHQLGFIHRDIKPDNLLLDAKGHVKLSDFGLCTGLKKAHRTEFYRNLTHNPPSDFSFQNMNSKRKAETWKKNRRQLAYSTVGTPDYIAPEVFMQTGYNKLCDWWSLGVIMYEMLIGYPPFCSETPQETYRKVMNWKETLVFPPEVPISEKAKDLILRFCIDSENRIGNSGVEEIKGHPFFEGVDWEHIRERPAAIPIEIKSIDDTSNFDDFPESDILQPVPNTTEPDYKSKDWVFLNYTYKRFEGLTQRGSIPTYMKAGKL

[29] = molecular target: Serine/threonine-protein kinase Nek7 (Homo sapiens) (UniProt Q8TDX7); settings: Compound concentration 1000.0 nM
[30] = molecular target: Cyclin-dependent kinase 14 (Homo sapiens) (UniProt O94921); settings: Compound concentration 1000.0 nM
[31] = molecular target: Serine/threonine-protein kinase PLK1 (Homo sapiens) (UniProt P53350); settings: Compound concentration 1000.0 nM
[32] = molecular target: Protein kinase C iota type (Homo sapiens) (UniProt P41743); settings: Compound concentration 1000.0 nM
Sequence of Protein kinase C iota type (Homo sapiens) (P41743 whole entry): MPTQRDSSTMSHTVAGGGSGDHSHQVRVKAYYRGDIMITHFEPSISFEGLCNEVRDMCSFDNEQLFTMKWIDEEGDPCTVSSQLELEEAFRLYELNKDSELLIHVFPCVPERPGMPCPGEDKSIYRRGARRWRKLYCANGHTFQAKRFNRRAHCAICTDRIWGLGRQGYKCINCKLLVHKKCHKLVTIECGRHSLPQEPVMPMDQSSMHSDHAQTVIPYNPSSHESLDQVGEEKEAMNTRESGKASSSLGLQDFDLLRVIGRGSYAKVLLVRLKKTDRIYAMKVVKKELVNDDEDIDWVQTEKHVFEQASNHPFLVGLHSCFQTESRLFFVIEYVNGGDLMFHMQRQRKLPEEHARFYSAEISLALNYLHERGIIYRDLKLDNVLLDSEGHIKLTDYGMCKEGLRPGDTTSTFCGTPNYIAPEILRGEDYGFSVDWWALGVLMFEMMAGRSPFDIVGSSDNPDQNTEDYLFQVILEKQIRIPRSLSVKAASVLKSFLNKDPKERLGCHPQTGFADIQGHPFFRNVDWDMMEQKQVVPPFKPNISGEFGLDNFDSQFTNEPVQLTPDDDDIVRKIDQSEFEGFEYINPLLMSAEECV

[33] = molecular target: Serine/threonine-protein kinase D3 (Homo sapiens) (UniProt O94806); settings: Compound concentration 1000.0 nM
[34] = molecular target: Protein-tyrosine kinase 2-beta (Homo sapiens) (UniProt Q14289); settings: Compound concentration 1000.0 nM
[35] = molecular target: Serine/threonine-protein kinase RIO1 (Homo sapiens) (UniProt Q9BRS2); settings: Compound concentration 1000.0 nM
[36] = molecular target: Ribosomal protein S6 kinase alpha-5 (Homo sapiens) (UniProt O75582); settings: Compound concentration 1000.0 nM
Sequence of Ribosomal protein S6 kinase alpha-5 (Homo sapiens) (O75582 whole entry, looked up): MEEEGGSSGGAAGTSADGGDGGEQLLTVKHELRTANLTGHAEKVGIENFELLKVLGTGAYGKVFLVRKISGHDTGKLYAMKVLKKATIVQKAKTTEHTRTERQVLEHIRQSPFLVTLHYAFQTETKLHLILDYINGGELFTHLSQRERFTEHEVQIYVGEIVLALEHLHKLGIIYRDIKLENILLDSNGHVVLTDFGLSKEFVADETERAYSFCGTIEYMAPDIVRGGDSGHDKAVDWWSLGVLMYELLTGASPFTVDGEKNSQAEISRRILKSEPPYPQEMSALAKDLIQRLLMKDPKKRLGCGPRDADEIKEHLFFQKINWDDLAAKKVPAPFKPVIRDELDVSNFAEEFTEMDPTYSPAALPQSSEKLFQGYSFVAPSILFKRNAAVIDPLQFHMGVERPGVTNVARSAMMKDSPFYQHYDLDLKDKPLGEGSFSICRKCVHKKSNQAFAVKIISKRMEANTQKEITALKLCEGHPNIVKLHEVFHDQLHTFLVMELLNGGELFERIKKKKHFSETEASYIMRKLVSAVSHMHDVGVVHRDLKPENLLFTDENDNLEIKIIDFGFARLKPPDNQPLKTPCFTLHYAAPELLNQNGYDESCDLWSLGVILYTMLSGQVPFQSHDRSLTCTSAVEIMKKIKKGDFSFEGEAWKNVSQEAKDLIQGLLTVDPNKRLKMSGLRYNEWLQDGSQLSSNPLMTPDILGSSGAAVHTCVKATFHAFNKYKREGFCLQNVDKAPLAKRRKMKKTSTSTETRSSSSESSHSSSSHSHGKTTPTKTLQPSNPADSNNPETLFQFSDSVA

[37] = molecular target: Ribosomal protein S6 kinase alpha-2 (Homo sapiens) (UniProt Q15349); settings: Compound concentration 1000.0 nM
[38] = molecular target: Serine/threonine-protein kinase Sgk3 (Homo sapiens) (UniProt Q96BR1); settings: Compound concentration 1000.0 nM
[39] = molecular target: Serine/threonine-protein kinase SIK2 (Homo sapiens) (UniProt Q9H0K1); settings: Compound concentration 1000.0 nM
[40] = molecular target: Proto-oncogene tyrosine-protein kinase Src (Homo sapiens) (UniProt P12931); settings: Compound concentration 1000.0 nM
[41] = molecular target: Serine/threonine-protein kinase TAO3 (Homo sapiens) (UniProt Q9H2K8); settings: Compound concentration 1000.0 nM
[42] = molecular target: Tyrosine-protein kinase Tec (Homo sapiens) (UniProt P42680); settings: Compound concentration 1000.0 nM
[43] = molecular target: Tyrosine-protein kinase receptor TYRO3 (Homo sapiens) (UniProt Q06418); settings: Compound concentration 1000.0 nM
[44] = molecular target: Serine/threonine-protein kinase 32B (Homo sapiens) (UniProt Q9NY57); settings: Compound concentration 1000.0 nM
Sequence of Serine/threonine-protein kinase 32B (Homo sapiens) (Q9NY57 whole entry): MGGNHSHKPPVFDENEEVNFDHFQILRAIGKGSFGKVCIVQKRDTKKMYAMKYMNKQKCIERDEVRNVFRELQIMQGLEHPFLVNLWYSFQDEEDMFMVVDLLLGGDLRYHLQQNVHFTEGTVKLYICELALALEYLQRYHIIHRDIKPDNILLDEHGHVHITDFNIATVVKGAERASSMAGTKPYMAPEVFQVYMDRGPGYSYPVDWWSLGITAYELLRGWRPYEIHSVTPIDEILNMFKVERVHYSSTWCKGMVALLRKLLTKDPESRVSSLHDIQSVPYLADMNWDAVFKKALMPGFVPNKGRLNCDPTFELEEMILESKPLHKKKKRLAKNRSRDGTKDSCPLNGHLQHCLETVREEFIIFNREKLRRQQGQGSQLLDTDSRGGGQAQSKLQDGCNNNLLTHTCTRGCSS

[45] = molecular target: Tyrosine-protein kinase Yes (Homo sapiens) (UniProt P07947); settings: Compound concentration 1000.0 nM
[46] = molecular target: 5-hydroxytryptamine receptor 1D (Homo sapiens) (UniProt P28221); settings: Compound concentration 10.0 uM
Sequence of 5-hydroxytryptamine receptor 1D (Homo sapiens) (P28221 whole entry): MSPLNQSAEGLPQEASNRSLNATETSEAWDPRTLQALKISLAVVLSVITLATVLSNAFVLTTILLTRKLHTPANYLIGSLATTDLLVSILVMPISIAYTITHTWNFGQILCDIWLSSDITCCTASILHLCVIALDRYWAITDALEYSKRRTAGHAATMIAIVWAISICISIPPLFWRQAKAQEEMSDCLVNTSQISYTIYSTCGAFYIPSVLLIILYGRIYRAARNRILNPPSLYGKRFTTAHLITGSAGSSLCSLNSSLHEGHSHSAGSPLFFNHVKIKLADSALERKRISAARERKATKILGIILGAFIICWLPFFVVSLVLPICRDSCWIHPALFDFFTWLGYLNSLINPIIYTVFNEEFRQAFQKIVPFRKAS

Cc1cc(-n2nc(Cc3cc(F)cc(C(F)(F)F)c3)nc2C)ccc1C(N)=O [TP-024]
residual activity [1]: 93% | residual activity [2]: 94% | residual activity [3]: 100% | residual activity [4]: 93% | residual activity [5]: 100% | residual activity [6]: 100% | residual activity [7]: 100% | residual activity [8]: 100% | residual activity [9]: 79% | residual activity [10]: 91% | residual activity [11]: 95% | residual activity [12]: 91% | residual activity [13]: 100% | residual activity [14]: 100% | residual activity [15]: 100% | residual activity [16]: 100% | residual activity [17]: 97% | residual activity [18]: 92% | residual activity [19]: 92% | residual activity [20]: 100% | residual activity [21]: 100% | residual activity [22]: 100% | residual activity [23]: 100% | residual activity [24]: 93% | residual activity [25]: 92% | residual activity [26]: 100% | residual activity [27]: 100% | residual activity [28]: 49% | residual activity [29]: 97% | residual activity [30]: 100% | residual activity [31]: 100% | residual activity [32]: 100% | residual activity [33]: 81% | residual activity [34]: 100% | residual activity [35]: 85% | residual activity [36]: 97% | residual activity [37]: 100% | residual activity [38]: 80% | residual activity [39]: 100% | residual activity [40]: 95% | residual activity [41]: 83% | residual activity [42]: 100% | residual activity [43]: 100% | residual activity [44]: 100% | residual activity [45]: 100% | inhibition [46]: 12.5%

Cc1nc(Cc2cccc(C(F)(F)F)c2)sc1-c1ccc(C(N)=O)nc1 [TP-024n]
residual activity [1]: 85% | residual activity [2]: 87% | residual activity [3]: 100% | residual activity [4]: 75% | residual activity [5]: 100% | residual activity [6]: 100% | residual activity [7]: 100% | residual activity [8]: 100% | residual activity [9]: 82% | residual activity [10]: 96% | residual activity [11]: 89% | residual activity [12]: 90% | residual activity [13]: 94% | residual activity [14]: 68% | residual activity [15]: 100% | residual activity [16]: 100% | residual activity [17]: 82% | residual activity [18]: 92% | residual activity [19]: 72% | residual activity [20]: 86% | residual activity [21]: 100% | residual activity [22]: 100% | residual activity [23]: 98% | residual activity [24]: 92% | residual activity [25]: 81% | residual activity [26]: 81% | residual activity [27]: 100% | residual activity [28]: 44% | residual activity [29]: 98% | residual activity [30]: 100% | residual activity [31]: 100% | residual activity [32]: 100% | residual activity [33]: 97% | residual activity [34]: 100% | residual activity [35]: 94% | residual activity [36]: 100% | residual activity [37]: 100% | residual activity [38]: 100% | residual activity [39]: 90% | residual activity [40]: 80% | residual activity [41]: 83% | residual activity [42]: 100% | residual activity [43]: 99% | residual activity [44]: 69% | residual activity [45]: 100% | inhibition [46]: 8.49%
